Read-outs that look alike come from different tables or passages of the source.
How the values were obtained:
[1] = molecular target: T1, glucagon receptor (GCGR) overexpressed CHO-K1 cells or human primary hepatocytes (Homo sapiens, UniProt P47871); assay: Glucagon cAMP inhibition assay (Cisbio cAMP Dynamic 2 HTRF); assay type: cell-based
T1 construct: expressed in transfected cells; host or cells: GCGR overexpressed CHO-K1 cells or human primary hepatocytes (endogenous receptor)
Procedure, shortened: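 GCGR-overexpressing CHO-K1 cells or human primary hepatocytes in HBSS with 0.1% BSA and 800 nM IBMX, pre-incubated 30 min with serially diluted compounds (1% DMSO final), then stimulated 30 min at room temperature with glucagon at its EC50. cAMP measured by HTRF after 60 min lysis; IC50 by non-linear regression.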

glucagon receptor (GCGR) = molecular target: T2, glucagon receptor (GCGR) (Homo sapiens, UniProt P47871); assay: I125-glucagon binding assay (competition, GCGR membrane fractions)
T2 construct: expressed in transfected cells; host or cells: CHO-K1 cells overexpressing GCGR (membrane fractions)
Procedure, shortened: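 Membranes from CHO-K1 cells overexpressing GCGR, 7.5 μg/well in 50 mM Tris pH 7.4 with 0.5% BSA, were preincubated 5 min with serially diluted compounds, then given 0.0625 nM final I^125-glucagon for 30 min at 25° C. Bound label was filtered on PEI-coated GF/B and counted; IC50 by non-linear regression.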

[2] = inhibition of glucagon (EC50 concentration) induced cAMP production
[3] = competition with I125-glucagon 0.0625 nM, membrane fractions of GCGR overexpressed CHO-K1 cells

T2 sequence (P47871 26-477): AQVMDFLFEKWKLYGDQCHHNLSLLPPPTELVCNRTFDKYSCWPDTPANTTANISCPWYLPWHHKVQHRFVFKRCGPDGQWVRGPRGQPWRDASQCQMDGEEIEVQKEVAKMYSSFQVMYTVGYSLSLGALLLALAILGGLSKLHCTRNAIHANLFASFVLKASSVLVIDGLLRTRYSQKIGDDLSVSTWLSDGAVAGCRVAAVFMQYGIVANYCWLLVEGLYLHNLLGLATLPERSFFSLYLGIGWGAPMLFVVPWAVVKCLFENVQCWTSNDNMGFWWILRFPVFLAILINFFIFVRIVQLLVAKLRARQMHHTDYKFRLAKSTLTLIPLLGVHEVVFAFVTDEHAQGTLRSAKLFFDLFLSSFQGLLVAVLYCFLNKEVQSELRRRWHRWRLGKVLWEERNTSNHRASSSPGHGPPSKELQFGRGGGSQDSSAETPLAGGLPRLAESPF
T1 sequence (P47871 26-477): as above

| IC50 cAMP [1, 2] | IC50 (glucagon receptor (GCGR); [3]) | IC50 cAMP [1] | IC50 (glucagon receptor (GCGR)) | Compound |
| --- | --- | --- | --- | --- |
| 3332 nM | 769 nM |  |  | CC[C@H](C)[C@@H](COc1ccc(-c2ccc(C(F)(F)F)cc2F)nn1)Nc1ccc(C(=O)NCCC(=O)O)cc1 [Compound 17-5, 3-(4-(((2S,3S)-1-((6-(2-fluoro-4-(trifluoromethyl)phenyl)pyridazin-3-yl)oxy)-3-methylpentan-2-yl)amino)benzamido)propanoic Acid] |
| 10157 nM | 445 nM |  |  | CC[C@H](C)[C@@H](COc1ccc(-c2ccc(F)cc2F)nn1)Nc1ccc(C(=O)NCCC(=O)O)cc1 [Compound 17-6, 3-(4-(((2S,3S)-1-((6-(2,4-difluorophenyl)pyridazin-3-yl)oxy)-3-methylpentan-2-yl)amino)benzamido)propanoic Acid] |
| 7647 nM | 1320 nM |  |  | CC(C)C[C@@H](COc1ccc(-c2ccc(C(F)(F)F)cc2)nn1)Nc1ccc(C(=O)NCCC(=O)O)cc1 [Compound 17-7, (S)-3-(4-((4-methyl-1-((6-(4-(trifluoromethyl)phenyl)pyridazin-3-yl)oxy)pentan-2-yl)amino)benzamido)propanoic Acid] |
| 10741 nM | 2040 nM |  |  | CC(C)[C@@H](COc1ccc(-c2cc3ccccc3o2)nn1)Nc1ccc(C(=O)NCCC(=O)O)cc1 [Compound 17-8, (S)-3-(4-((1-((6-(benzofuran-2-yl)pyridazin-3-yl)oxy)-3-methylbutan-2-yl)amino)benzamido)propanoic Acid] |
| 11597 nM | 2600 nM |  |  | CC(C)[C@@H](COc1ccc(-c2ccc(C(F)(F)F)cc2F)nn1)Nc1ccc(C(=O)NCCC(=O)O)cc1 [Compound 17-9] |
| >30000 nM | 2300 nM |  |  | CC(C)[C@@H](COc1ccc(-c2ccc(F)cc2)nn1)Nc1ccc(C(=O)NCCC(=O)O)cc1 [Compound 17-10, (S)-3-(4-((1-((6-(4-fluorophenyl)pyridazin-3-yl)oxy)-3-methylbutan-2-yl)amino)benzamido)propanoic Acid] |
| >30000 nM | 1010 nM |  |  | CC(C)[C@@H](COc1ccc(-c2ccc(F)cc2F)nn1)Nc1ccc(C(=O)NCCC(=O)O)cc1 [Compound 17-11, (S)-3-(4-((1-((6-(2,4-difluorophenyl)pyridazin-3-yl)oxy)-3-methylbutan-2-yl)amino)benzamido)propanoic Acid] |
| 6494 nM | 20000 nM |  |  | CC(C)[C@@H](COc1ccc(-c2ccc(C(C)(C)C)cc2)nn1)Nc1ccc(C(=O)NCCC(=O)O)cc1 [Compound 17-12, (S)-3-(4-((1-((6-(4-(tert-buty)phenyl)pyridazin-3-yl)oxy)-3-methylbutan-2-yl)amino)benzamido)propanoic Acid] |
|  |  | 250 nM | 386 nM | CCCC[C@@H](COc1ccc(-c2cc3ccccc3o2)c(C)n1)Nc1ccc(C(=O)NCCC(=O)O)cc1 [Compound 18-1, (S)-3-(4-((1-((5-(benzofuran-2-yl)-6-methylpyridin-2-yl)oxy)hexan-2-yl)amino)benzamido)propanoic Acid] |
|  |  | 49 nM | 42 nM | CCCC[C@@H](COc1ccc(-c2ccc(C(F)(F)F)cc2Cl)c(C)n1)Nc1ccc(C(=O)NCCC(=O)O)cc1 [Compound 18-2, (S)-3-(4-((1-((5-(2-chloro-4-(trifluoromethyl)phenyl)-6-methylpyridin-2-yl)oxy)hexan-2-yl)amino)benzamido)propanoic Acid] |
|  |  | 75 nM | 62 nM | CC[C@H](C)[C@@H](COc1ccc(-c2ccc(C(F)(F)F)cc2Cl)c(C)n1)Nc1ccc(C(=O)NCCC(=O)O)cc1 [Compound 18-3, 3-(4-(((2S,3S)-1-((5-(2-chloro-4-(trifluoromethyl)phenyl)-6-methylpyridin-2-yl)oxy)-3-methylpentan-2-yl)amino)benzamido)propanoic Acid] |
|  |  | 151 nM | 203 nM | CC[C@H](C)[C@@H](COc1ccc(-c2cc3ccccc3o2)c(C)n1)Nc1ccc(C(=O)NCCC(=O)O)cc1 [Compound 18-4, 3-(4-(((2S,3S)-1-((5-(benzofuran-2-yl)-6-methylpyridin-2-yl)oxy)-3-methylpentan-2-yl)amino)benzamido)propanoic Acid] |
|  |  | 151 nM | 165 nM | CC[C@H](C)[C@@H](COc1ccc(-c2ccc(Cl)cc2Cl)c(C)n1)Nc1ccc(C(=O)NCCC(=O)O)cc1 [Compound 18-5, 3-(4-(((2S,3S)-1-((5-(2,4-dichlorophenyl)-6-methylpyridin-2-yl)oxy)-3-methylpentan-2-yl)amino)benzamido)propanoic Acid] |
|  |  | 204 nM | 179 nM | CC[C@H](C)[C@@H](COc1ccc(-c2ccc(C(F)(F)F)cc2F)c(C)n1)Nc1ccc(C(=O)NCCC(=O)O)cc1 [Compound 18-6, 3-(4-(((2S,3S)-1-((5-(2-fluoro-4-(trifluoromethyl)phenyl)-6-methylpyridin-2-yl)oxy)-3-methylpentan-2-yl)amino)benzamido)propanoic Acid] |
|  |  | 80 nM | 74 nM | Cc1nc(OC[C@H](CC(C)C)Nc2ccc(C(=O)NCCC(=O)O)cc2)ccc1-c1ccc(C(F)(F)F)cc1Cl [Compound 18-7, (S)-3-(4-((1-((5-(2-chloro-4-(trifluoromethyl)phenyl)-6-methylpyridin-2-)oxy)-4-methylpentan-2-yl)amino)benzamido)propanoic Acid] |
|  |  | 122.5 nM | 49 nM | Cc1nc(OC[C@H](CC(C)C)Nc2ccc(C(=O)NCCC(=O)O)cc2)ccc1-c1ccc(Cl)cc1Cl [Compound 18-8, (S)-3-(4-((1-((5-(2,4-dichlorophenyl)-6-methylpyridin-2-yl)oxy)-4-methylpentan-2-yl)amino)benzamido)propanoic Acid] |
|  |  | 429.9 nM | 207 nM | Cc1nc(OC[C@H](CC(C)C)Nc2ccc(C(=O)NCCC(=O)O)cc2)ccc1-c1cc2ccccc2o1 [Compound 18-9, (S)-3-(4-((1-((5-(benzofuran-2-yl)-6-methylpyridin-2-yl)oxy)-4-methylpentan-2-yl)amino)benzamido)propanoic Acid] |
|  |  | 393.8 nM | 109 nM | CCCC[C@H](Cc1ccc(-c2ccc(C(F)(F)F)cc2)cc1)Nc1ccc(C(=O)NCCC(=O)O)cc1 [Compound 19-1, (R)-3-(4-((1-(4′-(trifluoromethyl)-[1,1′-biphenyl]-4-yl)hexan-2-yl)amino)benzamido)propanoic Acid] |
|  |  | 5186 nM | 6320 nM | C[C@@H](Cc1ccc(-c2ccc(Cl)cc2Cl)cc1)Nc1ccc(C(=O)NCCC(=O)O)cc1 [Compound 19-2, (S)-3-(4-((1-(2′,4′-dichloro-[1,1′-biphenyl]-4-yl)propan-2-yl)amino)benzamido)propanoic Acid] |
|  |  | 2719 nM | 2730 nM | C[C@@H](Cc1ccc(-c2ccc(C(F)(F)F)cc2)cc1)Nc1ccc(C(=O)NCCC(=O)O)cc1 [Compound 19-3, (S)-3-(4-((1-(4′-(trifluoromethyl)-[1,1′-biphenyl]-4-yl)propan-2-yl)amino)benzamido)propanoic Acid] |
|  |  | 3488 nM | 1630 nM | C[C@@H](Cc1ccc(-c2ccc(C(C)(C)C)cc2)cc1)Nc1ccc(C(=O)NCCC(=O)O)cc1 [Compound 19-4, (S)-3-(4-((1-(4′-(tert-butyl)-[1,1′-biphenyl]-4-yl)propan-2-yl)amino)benzamido)propanoic Acid] |

Source: patent publication US11384060B2, “Amide compounds and use thereof” (ALPHALA CO., LTD., priority 2017, dated 2022)
